{"source": "patent US20260078158A1", "about": "“COMPOSITIONS COMPRISING CXCL10-DERIVED PEPTIDES AND METHODS OF USE THEREOF” (priority 2022, published 2026)", "key": {"[1]": {"tested_on": "Klebsiella pneumoniae", "parameters": "MIC: unit not given beside the values", "conditions": "strain ATCC 43816, sponsor, acetate formulation"}, "[2]": {"tested_on": "Acinetobacter baumannii-calcoaceticus complex", "assay": "microbe, parasite or virus in culture", "format": "cell-based", "conditions": "acetate formulation"}, "[3]": {"tested_on": "Escherichia coli", "assay": "microbe, parasite or virus in culture", "format": "cell-based", "conditions": "acetate formulation"}, "[4]": {"tested_on": "Staphylococcus aureus", "assay": "microbe, parasite or virus in culture", "format": "cell-based", "conditions": "acetate formulation, in µg/mL"}, "[5]": {"tested_on": "Pseudomonas aeruginosa", "assay": "microbe, parasite or virus in culture", "format": "cell-based", "conditions": "acetate formulation, in µg/mL"}, "[6]": {"tested_on": "E. cloacae species complex", "assay": "microbe, parasite or virus in culture", "format": "cell-based, Enterobacter cloacae", "conditions": "acetate formulation"}, "[7]": {"tested_on": "Enterococcus faecium", "assay": "microbe, parasite or virus in culture", "format": "cell-based", "conditions": "acetate formulation"}, "[8]": {"tested_on": "Enterococcus faecalis", "assay": "microbe, parasite or virus in culture", "format": "cell-based", "conditions": "acetate formulation, in µg/mL"}, "[9]": {"tested_on": "Streptococcus pneumoniae", "assay": "microbe, parasite or virus in culture", "format": "cell-based", "conditions": "acetate formulation, in µg/mL"}}, "note": "Where “and” joins values, the source holds several entries; their conditions need not be identical. Equal values may be shown once. Read-outs that look alike come from different tables or passages of the source.", "data": [{"sequence": "RYVRCRCI [Peptide P194]", "values": [{"measurement": "MIC", "setting": "[1]; replicate R1", "result": "8 (3×) and 4"}, {"measurement": "MIC", "setting": "[1]; replicate R2", "result": "8 and 4 (2×)"}, {"measurement": "MIC", "setting": "[2]; strain 1204424, non-MDR, replicate R1", "result": 8, "unit": "µg/mL"}, {"measurement": "MIC", "setting": "[2]; strain 1204424, non-MDR, replicate R2", "result": 8, "unit": "µg/mL"}, {"measurement": "MIC", "setting": "[2]; strain 1208060, non-MDR, replicate R1", "result": 8, "unit": "µg/mL"}, {"measurement": "MIC", "setting": "[2]; strain 1208060, non-MDR, replicate R2", "result": 4, "unit": "µg/mL"}, {"measurement": "MIC", "setting": "[2]; strain 1215088, MDR, replicate R1", "result": 8, "unit": "µg/mL"}, {"measurement": "MIC", "setting": "[2]; strain 1215088, MDR, replicate R2", "result": 4, "unit": "µg/mL"}, {"measurement": "MIC", "setting": "[2]; strain 1215098, MDR, replicate R1", "result": 16, "unit": "µg/mL"}, {"measurement": "MIC", "setting": "[2]; strain 1215098, MDR, replicate R2", "result": 8, "unit": "µg/mL"}, {"measurement": "MIC", "setting": "[2]; strain 1216520, non-MDR, replicate R1", "result": 8, "unit": "µg/mL"}, {"measurement": "MIC", "setting": "[2]; strain 1216520, non-MDR, replicate R2", "result": 4, "unit": "µg/mL"}, {"measurement": "MIC", "setting": "[3]; strain 1191008, MDR, ESBL, replicate R1", "result": 8, "unit": "µg/mL"}, {"measurement": "MIC", "setting": "[3]; strain 1191008, MDR, ESBL, replicate R2", "result": 8, "unit": "µg/mL"}, {"measurement": "MIC", "setting": "[3]; strain 1231795, MDR, ESBL, replicate R1", "result": 8, "unit": "µg/mL"}, {"measurement": "MIC", "setting": "[3]; strain 1231795, MDR, ESBL, replicate R2", "result": 8, "unit": "µg/mL"}, {"measurement": "MIC", "setting": "[3]; strain 1232428, MDR (COL-R), ESBL, replicate R1", "result": 16, "unit": "µg/mL"}, {"measurement": "MIC", "setting": "[3]; strain 1232428, MDR (COL-R), ESBL, replicate R2", "result": 8, "unit": "µg/mL"}, {"measurement": "MIC", "setting": "[3]; strain 1248389, ESBL, replicate R1", "result": 8, "unit": "µg/mL"}, {"measurement": "MIC", "setting": "[3]; strain 1248389, ESBL, replicate R2", "result": 8, "unit": "µg/mL"}, {"measurement": "MIC", "setting": "[3]; strain ATCC 25922, QC, replicate R1", "result": "8 (3×) and 4"}, {"measurement": "MIC", "setting": "[3]; strain ATCC 25922, QC, replicate R2", "result": "4 and 8 (2×)"}, {"measurement": "MIC", "setting": "[3]; strain ATCC BAA-2452, NDM-1, replicate R1", "result": 8, "unit": "µg/mL"}, {"measurement": "MIC", "setting": "[3]; strain ATCC BAA-2452, NDM-1, replicate R2", "result": 4, "unit": "µg/mL"}, {"measurement": "MIC", "setting": "[4]; strain 1124691, MRSA (USA300)/MDR, replicate R1", "result": 32}, {"measurement": "MIC", "setting": "[4]; strain 1182822, replicate R2", "result": 32}, {"measurement": "MIC", "setting": "[4]; strain 1189667, MRSA/MDR, replicate R1", "result": 32}, {"measurement": "MIC", "setting": "[4]; strain 1189667, MRSA/MDR, replicate R2", "result": 16}, {"measurement": "MIC", "setting": "[4]; strain 1189809, MRSA/MDR, replicate R1", "result": 32}, {"measurement": "MIC", "setting": "[4]; strain 1189809, MRSA/MDR, replicate R2", "result": 32}, {"measurement": "MIC", "setting": "[4]; strain 1190388, MRSA, replicate R1", "result": 32}, {"measurement": "MIC", "setting": "[4]; strain 1190388, MRSA, replicate R2", "result": 16}, {"measurement": "MIC", "setting": "[4]; strain 1221979, MRSA, replicate R1", "result": 32}, {"measurement": "MIC", "setting": "[4]; strain 1221979, MRSA, replicate R2", "result": 32}, {"measurement": "MIC", "setting": "[4]; strain ATCC 29213, QC, replicate R1", "result": 32}, {"measurement": "MIC", "setting": "[4]; strain ATCC 29213, QC, replicate R2", "result": 32}, {"measurement": "MIC", "setting": "[5]; strain 1190985, non-MDR, replicate R1", "result": 32}, {"measurement": "MIC", "setting": "[5]; strain 1190985, non-MDR, replicate R2", "result": 32}, {"measurement": "MIC", "setting": "[5]; strain 1202638, MDR, replicate R1", "result": 32}, {"measurement": "MIC", "setting": "[5]; strain 1202638, MDR, replicate R2", "result": 32}, {"measurement": "MIC", "setting": "[5]; strain 1210081, non-MDR, replicate R1", "result": 32}, {"measurement": "MIC", "setting": "[5]; strain 1210081, non-MDR, replicate R2", "result": 32}, {"measurement": "MIC", "setting": "[5]; strain 1242554, non-MDR, replicate R1", "result": 32}, {"measurement": "MIC", "setting": "[5]; strain 1242554, non-MDR, replicate R2", "result": 16}, {"measurement": "MIC", "setting": "[5]; strain 1263496, MDR, replicate R1", "result": 16}, {"measurement": "MIC", "setting": "[5]; strain 1263496, MDR, replicate R2", "result": 8}, {"measurement": "MIC", "setting": "[5]; strain ATCC 27853, QC, replicate R1", "result": 16}, {"measurement": "MIC", "setting": "[5]; strain ATCC 27853, QC, replicate R2", "result": 8}, {"measurement": "MIC", "setting": "[6]; Enterobacter cloacae strain 1230117, non-MDR, replicate R1", "result": 8, "unit": "µg/mL"}, {"measurement": "MIC", "setting": "[6]; Enterobacter cloacae strain 1230117, non-MDR, replicate R2", "result": 8, "unit": "µg/mL"}, {"measurement": "MIC", "setting": "[6]; strain 1197959, non-MDR, replicate R1", "result": 16, "unit": "µg/mL"}, {"measurement": "MIC", "setting": "[6]; strain 1197959, non-MDR, replicate R2", "result": 16, "unit": "µg/mL"}, {"measurement": "MIC", "setting": "[6]; strain 1204419, non-MDR, replicate R1", "result": 16, "unit": "µg/mL"}, {"measurement": "MIC", "setting": "[6]; strain 1204419, non-MDR, replicate R2", "result": 16, "unit": "µg/mL"}, {"measurement": "MIC", "setting": "[6]; strain 1230601, non-MDR, replicate R1", "result": 16, "unit": "µg/mL"}, {"measurement": "MIC", "setting": "[6]; strain 1230601, non-MDR, replicate R2", "result": 8, "unit": "µg/mL"}, {"measurement": "MIC", "setting": "[6]; strain 1232701, MDR, replicate R1", "result": 16, "unit": "µg/mL"}, {"measurement": "MIC", "setting": "[6]; strain 1232701, MDR, replicate R2", "result": 16, "unit": "µg/mL"}, {"measurement": "MIC", "setting": "[7]; strain 1196024, VRE, replicate R1", "result": 2, "unit": "µg/mL"}, {"measurement": "MIC", "setting": "[7]; strain 1196024, VRE, replicate R2", "result": 2, "unit": "µg/mL"}, {"measurement": "MIC", "setting": "[7]; strain 1208412, VRE, replicate R1", "result": 2, "unit": "µg/mL"}, {"measurement": "MIC", "setting": "[7]; strain 1208412, VRE, replicate R2", "result": 1, "unit": "µg/mL"}, {"measurement": "MIC", "setting": "[7]; strain 1222807, VSE, replicate R1", "result": 2, "unit": "µg/mL"}, {"measurement": "MIC", "setting": "[7]; strain 1222807, VSE, replicate R2", "result": 1, "unit": "µg/mL"}, {"measurement": "MIC", "setting": "[8]; strain 1204777, VRE, replicate R1", "result": 4}, {"measurement": "MIC", "setting": "[8]; strain 1204777, VRE, replicate R2", "result": 2}, {"measurement": "MIC", "setting": "[8]; strain 1211589, VRE, replicate R1", "result": 4}, {"measurement": "MIC", "setting": "[8]; strain 1211589, VRE, replicate R2", "result": 2}, {"measurement": "MIC", "setting": "[8]; strain ATCC 29212, QC, replicate R1", "result": 4}, {"measurement": "MIC", "setting": "[8]; strain ATCC 29212, QC, replicate R2", "result": 4}, {"measurement": "MIC", "setting": "[9]; strain 1200385, PEN-S, replicate R1", "result": 32}, {"measurement": "MIC", "setting": "[9]; strain 1200385, PEN-S, replicate R2", "result": 32}, {"measurement": "MIC", "setting": "[9]; strain 1219456, PEN-R, replicate R1", "result": 32}, {"measurement": "MIC", "setting": "[9]; strain 1219456, PEN-R, replicate R2", "result": 32}, {"measurement": "MIC", "setting": "[9]; strain 1219876, PEN-R, replicate R1", "result": 32}, {"measurement": "MIC", "setting": "[9]; strain 1219876, PEN-R, replicate R2", "result": 32}, {"measurement": "MIC", "setting": "[9]; strain 1223661, PEN-R, replicate R1", "result": 32}, {"measurement": "MIC", "setting": "[9]; strain 1223661, PEN-R, replicate R2", "result": 32}, {"measurement": "MIC", "setting": "[9]; strain 1227224, PEN-S, replicate R1", "result": 16}, {"measurement": "MIC", "setting": "[9]; strain 1227224, PEN-S, replicate R2", "result": 32}, {"measurement": "MIC", "setting": "[9]; strain ATCC 49619, QC, replicate R1", "result": 16}, {"measurement": "MIC", "setting": "[9]; strain ATCC 49619, QC, replicate R2", "result": 16}]}]}
